Test results as given in ChEMBL document CHEMBL5724914, “Linking interpersonal differences in gut microbiota composition and drug biotransformation activity” (2024).

What was measured:
[1] = (§1) The drug is tested on Z-023 corresponding to metagenome with ENA study accession number: PRJEB37062 and ENA sample accession number: ERS12561822 for biotransformation under anaerobic condition. The drug concentrations were measured over 9 timepoints collected between 0 and 24 hours of incubation by liquid-chromatography-coupled mass spectrometry (LC–MS); details: 2 µM
[2] = (§2) The drug is tested on Z-009 corresponding to pig gut metagenome with ENA study accession number: PRJEB37062 and ENA sample accession number: ERS12561809 for biotransformation under anaerobic condition. The drug concentrations were measured over 9 timepoints collected between 0 and 24 hours of incubation by liquid-chromatography-coupled mass spectrometry (LC–MS); details: 2 µM
[3] = as §1, with “Z-004” for “Z-023”, “ERS12561804” for “ERS12561822”; details: 2 µM
[4] = as §2, with “Z-001” for “Z-009”, “mouse” for “pig”, “ERS12561801” for “ERS12561809”; details: 2 µM
[5] = as §2, with “WLS-370” for “Z-009”, “human” for “pig”, “ERS12561793” for “ERS12561809”; details: 2 µM
[6] = as §2, with “WLS-170” for “Z-009”, “human” for “pig”, “ERS12561762” for “ERS12561809”; details: 2 µM
[7] = as §2, with “WLS-090” for “Z-009”, “human” for “pig”, “ERS12561753” for “ERS12561809”; details: 2 µM
[8] = human gut metagenome, 24 h, 2 µM
[9] = human gut metagenome, 24 h, 2 µM; remark: listed apart in the source
[10] = human gut metagenome, 24 h, 2 µM; remark: listed apart in the source
[11] = human gut metagenome, 24 h, 2 µM; remark: listed apart in the source
[12] = human gut metagenome, 24 h, 2 µM; remark: listed apart in the source
[13] = human gut metagenome, 24 h, 2 µM; remark: listed apart in the source
[14] = human gut metagenome, 24 h, 2 µM; remark: listed apart in the source
[15] = human gut metagenome, 24 h, 2 µM; remark: listed apart in the source
[16] = human gut metagenome, 24 h, 2 µM; remark: listed apart in the source
[17] = human gut metagenome, 24 h, 2 µM; remark: listed apart in the source
[18] = human gut metagenome, 24 h, 2 µM; remark: listed apart in the source
[19] = human gut metagenome, 24 h, 2 µM; remark: listed apart in the source
[20] = human gut metagenome, 24 h, 2 µM; remark: listed apart in the source
Also: call rule not given here.

Structure (SMILES)	Bacterial Biotransformation [1]	Bacterial Biotransformation [2]	Bacterial Biotransformation [3]	Bacterial Biotransformation [4]	Bacterial Biotransformation [5]	Bacterial Biotransformation [6]	Bacterial Biotransformation [7]	Bacterial Biotransformation [8]	Bacterial Biotransformation [9]	Bacterial Biotransformation [10]	Bacterial Biotransformation [11]	Bacterial Biotransformation [12]	Bacterial Biotransformation [13]	Bacterial Biotransformation [14]	Bacterial Biotransformation [15]	Bacterial Biotransformation [16]	Bacterial Biotransformation [17]	Bacterial Biotransformation [18]	Bacterial Biotransformation [19]	Bacterial Biotransformation [20]
CC(C)c1nc(N(C)S(C)(=O)=O)nc(-c2ccc(F)cc2)c1/C=C/[C@@H](O)C[C@@H](O)CC(=O)[O-].CC(C)c1nc(N(C)S(C)(=O)=O)nc(-c2ccc(F)cc2)c1/C=C/[C@@H](O)C[C@@H](O)CC(=O)[O-].[Ca+2] [ROSUVASTATIN CALCIUM]	Compound NOT metabolized	Compound NOT metabolized	Compound NOT metabolized	Compound NOT metabolized	Compound metabolized	Compound metabolized	Compound metabolized	Compound metabolized	Compound NOT metabolized	Compound NOT metabolized	Compound metabolized	Compound metabolized	Compound metabolized	Compound metabolized	Compound metabolized	Compound NOT metabolized	Compound NOT metabolized	Compound NOT metabolized	Compound metabolized	Compound metabolized
O=C(O)c1cc(/N=N/c2ccc(S(=O)(=O)Nc3ccccn3)cc2)ccc1O [SULFASALAZINE]	Compound metabolized	Compound metabolized	Compound metabolized	Compound metabolized	Compound metabolized	Compound metabolized	Compound metabolized	Compound metabolized	Compound metabolized	Compound metabolized	Compound metabolized	Compound metabolized	Compound metabolized	Compound metabolized	Compound metabolized	Compound metabolized	Compound metabolized	Compound metabolized	Compound metabolized	Compound metabolized
C=CC[C@@H]1/C=C(\C)C[C@H](C)C[C@H](OC)[C@H]2O[C@@](O)(C(=O)C(=O)N3CCCC[C@H]3C(=O)O[C@H](/C(C)=C/[C@@H]3CC[C@@H](O)[C@H](OC)C3)[C@H](C)[C@@H](O)CC1=O)[C@H](C)C[C@@H]2OC.O [TACROLIMUS]	Compound NOT metabolized	Compound NOT metabolized	Compound NOT metabolized	Compound NOT metabolized	Compound metabolized	Compound metabolized	Compound metabolized	Compound metabolized	Compound metabolized	Compound NOT metabolized	Compound metabolized	Compound metabolized	Compound metabolized	Compound metabolized	Compound metabolized	Compound metabolized	Compound metabolized	Compound metabolized	Compound metabolized	Compound metabolized
COc1ccc(CN2CCNCC2)c(OC)c1OC.Cl.Cl [TRIMETAZIDINE DIHYDROCHLORIDE]	Compound NOT metabolized	Compound NOT metabolized	Compound NOT metabolized	Compound NOT metabolized	Compound NOT metabolized	Compound NOT metabolized	Compound NOT metabolized	Compound NOT metabolized	Compound NOT metabolized	Compound NOT metabolized	Compound NOT metabolized	Compound NOT metabolized	Compound NOT metabolized	Compound NOT metabolized	Compound NOT metabolized	Compound NOT metabolized	Compound NOT metabolized	Compound NOT metabolized	Compound NOT metabolized	Compound NOT metabolized
CN1[C@@H]2CC[C@H]1C[C@@H](OC(=O)c1c[nH]c3ccccc13)C2 [TROPISETRON]	Compound NOT metabolized	Compound NOT metabolized	Compound NOT metabolized	Compound NOT metabolized	Compound NOT metabolized	Compound NOT metabolized	Compound metabolized	Compound NOT metabolized	Compound NOT metabolized	Compound NOT metabolized	Compound NOT metabolized	Compound NOT metabolized	Compound NOT metabolized	Compound NOT metabolized	Compound NOT metabolized	Compound NOT metabolized	Compound NOT metabolized	Compound NOT metabolized	Compound NOT metabolized	Compound NOT metabolized
